Molecular target: T1, diacylglycerol kinase α (DGKα) (Homo sapiens, UniProt P23743)
T1 construct: gene DGKA; full-length DGKα (aa 1–735), N-terminal His×6 tag, Sf9-expressed
Assay: Michaelis–Menten kinetics, mixed micelle ADP-Glo assay (Km)
Type: biochemical

T1 sequence (P23743 whole entry, the tested form may be a part): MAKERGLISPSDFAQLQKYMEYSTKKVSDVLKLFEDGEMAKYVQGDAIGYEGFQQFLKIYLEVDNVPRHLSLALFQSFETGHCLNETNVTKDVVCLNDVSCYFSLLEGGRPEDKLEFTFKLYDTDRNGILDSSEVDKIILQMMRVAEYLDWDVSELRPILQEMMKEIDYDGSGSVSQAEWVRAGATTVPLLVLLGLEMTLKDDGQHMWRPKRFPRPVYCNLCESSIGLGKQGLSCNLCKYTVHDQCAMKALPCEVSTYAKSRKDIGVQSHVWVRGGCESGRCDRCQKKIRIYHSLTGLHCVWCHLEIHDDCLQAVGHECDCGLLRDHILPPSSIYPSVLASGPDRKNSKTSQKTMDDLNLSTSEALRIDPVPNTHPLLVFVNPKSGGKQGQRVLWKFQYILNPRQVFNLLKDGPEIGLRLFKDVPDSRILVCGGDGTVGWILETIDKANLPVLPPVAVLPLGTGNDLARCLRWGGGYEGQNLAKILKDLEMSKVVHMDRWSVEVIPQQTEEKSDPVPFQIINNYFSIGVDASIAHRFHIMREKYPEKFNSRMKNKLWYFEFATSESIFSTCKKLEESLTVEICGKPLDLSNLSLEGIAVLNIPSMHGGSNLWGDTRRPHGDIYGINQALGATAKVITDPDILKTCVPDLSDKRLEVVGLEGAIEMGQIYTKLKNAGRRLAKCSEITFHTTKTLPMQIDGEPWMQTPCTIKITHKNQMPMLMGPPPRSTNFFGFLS

- Km: 1.06 ± 0.21 mol%
Structure (SMILES): CCCCCCCC/C=C\CCCCCCCC(=O)OC[C@H](CO)OC(=O)CCCCCCC/C=C\CCCCCCCC [1,2-dioleolyl-sn-glycerol]

From PMC6089211, “Expression and purification of human diacylglycerol kinase α from baculovirus-infected insect cells for structural studies” (PeerJ, 2018)
